Columns and labels:
Type in all cases: cell-based, human
[1] = test system: p16; assay: Real-time qPCR, p16 cell cycle-related gene expression; conditions: TNF-α/IFN-γ-exposed MSCs treated with compound; FIG. 1C
Procedure: Human placenta-derived mesenchymal stem cells (hPD-MSCs) were harvested from inside the placental chorion, and the harvested cells were cultured in an alpha-Minimum Essential medium (Cytiva, Marlborough, MA, USA) supplemented with 10% fetal bovine serum (ThermoFisher, Waltham, MA, USA), 1% penicillin/streptomycin (ThermoFisher, Waltham, MA, USA), 25 ng/mL human fibroblast growth factor-4 (Peprotech, Rocky Hill, NJ, USA) and 1 μg/mL heparin (Merck, San Francisco, CA, USA). A total of 1×10^5 hPD-MSCs were seeded in a cell culture dish (90×20 mm) (SPL, Pocheon, Korea) and cultured at 37° C. in an incubator containing 5% CO2. The cells were subcultured every 4 days until reaching 70 to 80% confluency. Expanded cells were obtained at passage 12 or 13. During subculture, viable cells were stained with Trypan blue (Merck) and the number of cells was manually counted.
In a passage for sample extraction, hPD-MSCs were cultured for 24 hours in a medium with or without an example compound (5-[(1,1-dioxido-4-thiomorpholinyl)methyl]-2-phenyl-N-(tetrahydro-2H-pyran-4-yl)-1H-indole-7-amine) while including 2.5 ng/mL TNF-α (Peprotech) and 25 ng/mL IFN-γ (Peprotech).
In the present experiment, the expression levels of stem cell differentiation-related genes and cell cycle-related genes were analyzed by qPCR. […]

[2] = test system: mitofusion 2 (MFN2); assay: Real-time qPCR, mitochondrial dynamics gene MFN2; conditions: vs TNF-α/IFN-γ-exposed MSC control (TI); FIG. 2B
Procedure: (§1) Real-time qPCR was performed using an Easy-Spin Total RNA Kit (iNtRON, Seongnam, Korea) to extract total RNA from hPD-MSCs and RNA concentration was adjusted to 100 ng/μL using a microplate spectrophotometer (Epoch™ Microplate Spectrophotometer, BioTek, Winooski, VT, USA), and the extracted RNA was reverse transcribed into cDNA using RT PreMix (dT20) (Bioneer, Seoul, Korea) using a SimpliAmp Thermal Cycler (Life Technologies, Carlsbad, CA, USA). Real-time qPCR was performed using a real-time PCR machine (CFX Connect, Bio-Rad, Hercules, CA, USA), SYBR Green Supermix (Bio-Rad) and the relevant primers, and all experiments were performed in triplicate for statistical analysis.
(§2) To investigate mitochondrial dynamics, real-time qPCR was performed to analyze the expression of dynamin-related protein 1 (DRP1), which is a mitochondrial division-related gene, and mitofusion 1 (MFN1) and mitofusion 2 (MFN2), which are […] mitochondrial membrane fusion-related genes. As the real-time qPCR analysis method, the same method described in Experimental Example 1-2 above was used, and the results are shown in FIG. 2B.

[3] = test system: dynamin-related protein 1 (DRP1); assay: Real-time qPCR, mitochondrial dynamics gene DRP1; conditions: vs TNF-α/IFN-γ-exposed MSC control (TI); FIG. 2B
Procedure: as §1, §2

[4] = test system: mitofusion 1 (MFN1); assay: Real-time qPCR, mitochondrial dynamics gene MFN1; conditions: vs TNF-α/IFN-γ-exposed MSC control (TI); FIG. 2B
Procedure: as §1, §2

[5] = test system: S6K; assay: Western blotting, S6K phosphorylation ratio (mTORC1 pathway); conditions: vs MSC control exposed to TNF-α/IFN-γ; FIG. 4D
Procedure: Further, the phosphorylation-induced activation ratios of AKT/mTOR/S6K, which represents the mTORC1 pathway, was analyzed. mTORC1 activation is known to not only induce senescence-associated phenotypes in MSCs, but also impair quiescence and sternness. In the present experiment, the phosphorylation ratio was confirmed using western blotting analysis as described below.
Proteins were extracted with a Pro-Prep protein lysis buffer (iNtRON) and quantified by a protein quantitative analysis kit (BIOMAX, Seoul, Korea). Samples were then heated in 4× Laemmli sample buffer (Bio-Rad) containing 2-mercaptoethanol (Bio-Rad), and proteins were loaded onto an 8% sodium dodecyl sulfate polyacrylamide gel and electrophoresed at 60 V for 30 minutes, and then electrophoresed at 120 V for 1 hour. […]
Immunoreactive bands were detected using an enhanced chemiluminescence detection reagent (Clarity™ Western blot substrate, Bio-Rad) and images of the bands were obtained using ImageSaver Version 6 (ATTO, Tokyo, Japan). The intensity of each band was analyzed with CA4 analyzer software (ATTO), and each experiment was performed in triplicate under the same conditions. […]

O=S1(=O)CCN(Cc2cc(NC3CCOCC3)c3[nH]c(-c4ccccc4)cc3c2)CC1 [example compound, 5-[(1,1-dioxido-4-thiomorpholinyl)methyl]-2-phenyl-N-(tetrahydro-2H-pyran-4-yl)-1H-indole-7-amine] was tested, and the “p16 expression (relative to untreated MSC control)” value [1] was “remarkably decreased”, the “reduction of MFN2 expression” value [2] was roughly 50% and the DRP1 expression level [3] was “slightly reduced”. The MFN1 expression level [4] was “slightly reduced” and the “reduction of S6K phosphorylation ratio (pS6K/S6K)” value [5] was roughly 40%.

Reference: US20240374646A1, “COMPOSITION FOR INHIBITING INFLAMMATION OR AGING OF STEM CELLS, AND METHOD FOR INHIBITING INFLAMMATION OR AGING BY USING SAME” (MITOIMMUNE THERAPEUTICS INC., priority 2021, published 2024)
